Results as given in PMC12165799, “Antimicrobial peptide developed with machine learning sequence optimization targets drug resistant Staphylococcus aureus in mice” (The Journal of Clinical Investigation, 2025).
Where two headings read alike, the source gives them in different places.

Tests used:
[1] = system: S. aureus MW2 biofilm formation; details: for Biofilm formation, biomass (crystal violet), percentage of untreated / Biofilm formation, live-cell viability (XTT), percentage of untreated: 24 hours
Procedure: 349 Prevention of S. aureus MW2 biofilm formation
350 We evaluated the ability of the citropin 1.1-derived peptides to inhibit biofilm formation
351 following an established protocol with modifications (5). In short, we prepared exponential
352 cultures of S. aureus MW2 (adjusted to OD600 = 0.01) in TSB medium (supplemented with 0.2%
353 glucose) from overnight cultures. We added 90 µl of the bacterial culture to 10 µl of serially diluted
354 10× peptide solution in flat-bottomed 96-well polystyrene microtiter plates (Cat no. Corning 3595,
We used TSB medium containing
356 bacteria with water as the positive control, while TSB media with sterile water served as the
357 negative control. After incubation, we carefully removed the TSB medium and washed the wells
358 with PBS (Gibco, MD, USA) to remove loosely attached planktonic cells. We quantified the
359 biomass by staining the biofilms with crystal violet following an established protocol and
360 quantitated the concentration of peptide that inhibits 50% of biofilm formation (MBIC50)(8). We
361 measured the live cell count of the biofilms using XTT dye [2,3-bis(2-methyloxy-4-nitro-5-
362 sulfophenyl)-2H-tertazolium-5-carboxanilide] (ATCC, VA, USA).

[2] = system: S. aureus VRS1 (VRSA) exponential and persister cells; experiment: S. aureus persister cell and time-kill assays (VRS1); assay type: cell-based, Staphylococcus aureus; details: 10 × MIC
Procedure: 305 Minimal inhibitory concentration (MIC) assay
We made serial dilutions of 10×
We determined the MIC using OD600
Accordingly, we added 150 mM NaCl,
319 established protocol (5).
323 aureus VRS1) in PBS. To assess the killing kinetics of CIT-8 in persister cells, we added 1 ml of
324 cell suspension to the wells of a 2-ml deep-well assay block (Cat no. 3960, Corning, NY, USA)
We also included ciprofloxacin (at 10 μg/ml) for S.
326 aureus MW2 and linezolid (100 μg/ml) for S. aureus VRS1 as antibiotic controls. Additionally,
327 we included bithionol (at 10 μg/ml) as a positive control, known for its ability to kill stationary
328 phase persister cells (6). We incubated the plates at 37°C, with shaking at 225 rpm. At specific
329 times (0, 15, 30, 60, and 120 min), we collected 10 μl samples, diluted them serially, and then
330 plated them on tryptic soy agar (TSA) (BD Difco, NJ, USA) plates. We incubated the TSA plates
331 for 18 hours at 37°C for colony counting. We performed these experiments in duplicate. As a
332 comparison, we prepared the exponential cells of S. aureus MW2 and VRS1 in PBS and analyzed
333 their killing kinetics in the same manner as described for persister cells.

HepG2 cells = experiment: Mammalian cell cytotoxicity assay
Procedure: 410 the HepG2 cells at 37°C in 5% CO2 in Dulbecco’s Modified Eagle Medium (DMEM) (Gibco, MA,
We harvested and resuspended cells in fresh DMEM

Procedure for S. aureus isolates: 306 To determine the minimum concentration of peptide that inhibits the growth of bacteria,
307 termed as the minimal inhibitory concentration (MIC), we used the broth microdilution method
308 described by the Clinical and Laboratory Standards Institute (4). We made serial dilutions of 10×
309 concentrated peptides (10 µl) in duplicate in 96-well plates (Cat no. 3595, Corning, NY, USA).
310 We added 90 µl of logarithmic-phase bacteria at 1 × 10^6 CFU/ml (in TSB medium) to the peptides
311 and then incubated the plates at 37°C for 18 hours. We determined the MIC using OD600
312 measurements taken on a Spectra Max i3x spectrophotometer (Molecular Devices, CA, USA).

CN[C@H](CC(C)C)C(=O)N[C@H]1C(=O)N[C@@H](CC(N)=O)C(=O)N[C@H]2C(=O)N[C@H]3C(=O)N[C@H](C(=O)N[C@H](C(=O)O)c4cc(O)cc(O)c4-c4cc3ccc4O)[C@H](O)c3ccc(c(Cl)c3)Oc3cc2cc(c3O[C@@H]2O[C@H](CO)[C@@H](O)[C@H](O)[C@H]2O[C@H]2C[C@](C)(N)[C@H](O)[C@H](C)O2)Oc2ccc(cc2Cl)[C@H]1O [Vancomycin, reference compound]
Biofilm formation, biomass (crystal violet), percentage of untreated ([1]; 4 μg/ml, replicate 1): 8.955 | Biofilm formation, live-cell viability (XTT), percentage of untreated ([1]; 4 μg/ml, replicate 1): -0.6369 | Biofilm formation, biomass (crystal violet), percentage of untreated ([1]; 4 μg/ml, replicate 2): 10.0268 | Biofilm formation, live-cell viability (XTT), percentage of untreated ([1]; 4 μg/ml, replicate 2): -0.3259 | Biofilm formation, biomass (crystal violet), percentage of untreated ([1]; 4 μg/ml, replicate 3): 18.3626 | Biofilm formation, live-cell viability (XTT), percentage of untreated ([1]; 4 μg/ml, replicate 3): -0.3777 | Biofilm formation, biomass (crystal violet), percentage of untreated ([1]; 8 μg/ml, replicate 1): 8.8836 | Biofilm formation, live-cell viability (XTT), percentage of untreated ([1]; 8 μg/ml, replicate 1): -0.674 | Biofilm formation, biomass (crystal violet), percentage of untreated ([1]; 8 μg/ml, replicate 2): 11.1462 | Biofilm formation, live-cell viability (XTT), percentage of untreated ([1]; 8 μg/ml, replicate 2): -0.4592 | Biofilm formation, biomass (crystal violet), percentage of untreated ([1]; 8 μg/ml, replicate 3): 16.9574 | Biofilm formation, live-cell viability (XTT), percentage of untreated ([1]; 8 μg/ml, replicate 3): -0.4518 | Biofilm formation, biomass (crystal violet), percentage of untreated ([1]; 16 μg/ml, replicate 1): 9.955 | Biofilm formation, live-cell viability (XTT), percentage of untreated ([1]; 16 μg/ml, replicate 1): -0.5851 | Biofilm formation, biomass (crystal violet), percentage of untreated ([1]; 16 μg/ml, replicate 2): 11.9559 | Biofilm formation, live-cell viability (XTT), percentage of untreated ([1]; 16 μg/ml, replicate 2): -0.437 | Biofilm formation, biomass (crystal violet), percentage of untreated ([1]; 16 μg/ml, replicate 3): 14.6234 | Biofilm formation, live-cell viability (XTT), percentage of untreated ([1]; 16 μg/ml, replicate 3): -0.4148 | Biofilm formation, biomass (crystal violet), percentage of untreated ([1]; 32 μg/ml, replicate 1): 10.1935 | Biofilm formation, live-cell viability (XTT), percentage of untreated ([1]; 32 μg/ml, replicate 1): -0.4962 | Biofilm formation, biomass (crystal violet), percentage of untreated ([1]; 32 μg/ml, replicate 2): 10.384 | Biofilm formation, live-cell viability (XTT), percentage of untreated ([1]; 32 μg/ml, replicate 2): -0.5555 | Biofilm formation, biomass (crystal violet), percentage of untreated ([1]; 32 μg/ml, replicate 3): 13.4802 | Biofilm formation, live-cell viability (XTT), percentage of untreated ([1]; 32 μg/ml, replicate 3): -0.4073

H-GLFKVIKKLLKVI-NH2 [CIT-8]
Time to eradication of exponential and VRSA persister cells [2]: ≤ 120 min | MIC (S. aureus isolates; S. aureus AR0215 (VISA)): 4 µg/mL | MIC (S. aureus isolates; S. aureus AR0216 (VISA)): 8 µg/mL | MIC (S. aureus isolates; S. aureus AR0217 (VISA)): 4 µg/mL | MIC (S. aureus isolates; S. aureus AR0219 (VISA)): 8 µg/mL | MIC (S. aureus isolates; S. aureus AR0225 (VISA)): 4 µg/mL | MIC (S. aureus isolates; S. aureus BF1 (clinical isolate)): 4 µg/mL | MIC (S. aureus isolates; S. aureus BF2 (clinical isolate)): 8 µg/mL | MIC (S. aureus isolates; S. aureus BF3 (clinical isolate)): 8 µg/mL | MIC (S. aureus isolates; S. aureus BF4 (clinical isolate)): 4 µg/mL | MIC (S. aureus isolates; S. aureus BF5 (clinical isolate)): 4 µg/mL | MIC (S. aureus isolates; S. aureus BF6 (clinical isolate)): 4 µg/mL | MIC (S. aureus isolates; S. aureus BF7 (clinical isolate)): 4 µg/mL | MIC (S. aureus isolates; S. aureus BF8 (clinical isolate)): 4 µg/mL | MIC (S. aureus isolates; S. aureus BF9 (clinical isolate)): 4 µg/mL | MIC (S. aureus isolates; S. aureus BF10 (clinical isolate)): 4 µg/mL | MIC (S. aureus isolates; S. aureus BF11 (clinical isolate)): 4 µg/mL | MIC (S. aureus isolates; S. aureus JE2 (MRSA)): 4 µg/mL | MIC (S. aureus isolates; S. aureus VRS1 (VRSA)): 4 µg/mL | MIC against various VRSA, MRSA, VISA, and S. aureus clinical isolates (S. aureus isolates; range over the isolates of Table 3): 4 to 8 µg/mL | Biofilm formation, biomass (crystal violet), percentage of untreated ([1]; 4 μg/ml, replicate 1): 54.1113 | Biofilm formation, live-cell viability (XTT), percentage of untreated ([1]; 4 μg/ml, replicate 1): 32.0317 | Biofilm formation, biomass (crystal violet), percentage of untreated ([1]; 4 μg/ml, replicate 2): 76.6895 | Biofilm formation, live-cell viability (XTT), percentage of untreated ([1]; 4 μg/ml, replicate 2): 22.3741 | Biofilm formation, biomass (crystal violet), percentage of untreated ([1]; 4 μg/ml, replicate 3): 101.649 | Biofilm formation, live-cell viability (XTT), percentage of untreated ([1]; 4 μg/ml, replicate 3): 54.6427 | Biofilm formation, biomass (crystal violet), percentage of untreated ([1]; 8 μg/ml, replicate 1): 13.6231 | Biofilm formation, live-cell viability (XTT), percentage of untreated ([1]; 8 μg/ml, replicate 1): -0.6814 | Biofilm formation, biomass (crystal violet), percentage of untreated ([1]; 8 μg/ml, replicate 2): 7.383 | Biofilm formation, live-cell viability (XTT), percentage of untreated ([1]; 8 μg/ml, replicate 2): -0.6073 | Biofilm formation, biomass (crystal violet), percentage of untreated ([1]; 8 μg/ml, replicate 3): 9.789 | Biofilm formation, live-cell viability (XTT), percentage of untreated ([1]; 8 μg/ml, replicate 3): -0.7036 | Biofilm formation, biomass (crystal violet), percentage of untreated ([1]; 16 μg/ml, replicate 1): 8.5978 | Biofilm formation, live-cell viability (XTT), percentage of untreated ([1]; 16 μg/ml, replicate 1): -0.7406 | Biofilm formation, biomass (crystal violet), percentage of untreated ([1]; 16 μg/ml, replicate 2): 7.669 | Biofilm formation, live-cell viability (XTT), percentage of untreated ([1]; 16 μg/ml, replicate 2): -0.7184 | Biofilm formation, biomass (crystal violet), percentage of untreated ([1]; 16 μg/ml, replicate 3): 8.622 | Biofilm formation, live-cell viability (XTT), percentage of untreated ([1]; 16 μg/ml, replicate 3): -0.5258 | Biofilm formation, biomass (crystal violet), percentage of untreated ([1]; 32 μg/ml, replicate 1): 7.502 | Biofilm formation, live-cell viability (XTT), percentage of untreated ([1]; 32 μg/ml, replicate 1): -0.6814 | Biofilm formation, biomass (crystal violet), percentage of untreated ([1]; 32 μg/ml, replicate 2): 7.074 | Biofilm formation, live-cell viability (XTT), percentage of untreated ([1]; 32 μg/ml, replicate 2): -0.6962 | Biofilm formation, biomass (crystal violet), percentage of untreated ([1]; 32 μg/ml, replicate 3): 7.812 | Biofilm formation, live-cell viability (XTT), percentage of untreated ([1]; 32 μg/ml, replicate 3): -0.5036 | Concentration killing 50% of biofilm cells during biofilm formation ([1]; XTT live-cell viability, 24 h): 4 µg/mL | MBIC50 (biomass reduced by 50%) ([1]; crystal violet, 24 h): 6 µg/mL | HepG2 cell viability, Sup. Fig. 4B (HepG2 cells; 4 μg/ml, replicate 1): 110.665 | HepG2 cell viability, Sup. Fig. 4B (HepG2 cells; 4 μg/ml, replicate 2): 94.3717 | HepG2 cell viability, Sup. Fig. 4B (HepG2 cells; 4 μg/ml, replicate 3): 107.525 | HepG2 cell viability, Sup. Fig. 4B (HepG2 cells; 8 μg/ml, replicate 1): 104.83 | HepG2 cell viability, Sup. Fig. 4B (HepG2 cells; 8 μg/ml, replicate 2): 93.4852 | HepG2 cell viability, Sup. Fig. 4B (HepG2 cells; 8 μg/ml, replicate 3): 105.572 | HepG2 cell viability, Sup. Fig. 4B (HepG2 cells; 16 μg/ml, replicate 1): 122.471 | HepG2 cell viability, Sup. Fig. 4B (HepG2 cells; 16 μg/ml, replicate 2): 104.62 | HepG2 cell viability, Sup. Fig. 4B (HepG2 cells; 16 μg/ml, replicate 3): 109.473 | HepG2 cell viability, Sup. Fig. 4B (HepG2 cells; 32 μg/ml, replicate 1): 107.545 | HepG2 cell viability, Sup. Fig. 4B (HepG2 cells; 32 μg/ml, replicate 2): 100.768 | HepG2 cell viability, Sup. Fig. 4B (HepG2 cells; 32 μg/ml, replicate 3): 106.994 | HepG2 cell viability, Sup. Fig. 4B (HepG2 cells; 64 μg/ml, replicate 1): 70.5897 | HepG2 cell viability, Sup. Fig. 4B (HepG2 cells; 64 μg/ml, replicate 2): 64.1784 | HepG2 cell viability, Sup. Fig. 4B (HepG2 cells; 64 μg/ml, replicate 3): 64.2134 | HepG2 cell viability, Sup. Fig. 4B (HepG2 cells; 128 μg/ml, replicate 1): 32.858 | HepG2 cell viability, Sup. Fig. 4B (HepG2 cells; 128 μg/ml, replicate 2): 28.9912 | HepG2 cell viability, Sup. Fig. 4B (HepG2 cells; 128 μg/ml, replicate 3): 25.6954 | LD50 (concentration needed to kill 50% of HEPG2 cells) (HepG2 cells; human liver-derived HEPG2 cells): 96 µg/mL
